In this experiment the test system is IFNα-Induced STAT Phosphorylation in Human Whole Blood. Put plainly: IFNα-Induced STAT Phosphorylation in Human Whole Blood. In kind it is cell-based. Conditions: 1 h incubation with compound, 1000 U/mL recombinant human IFNα A/D for 15 min, pSTAT5 (pY694) median fluorescence intensity in CD3 positive population, read-out: hWB IC50.

Broadly, the IC50 is the concentration that gives 50% inhibition.

For `[2H]C([2H])([2H])NC(=O)c1nnc(Nc2cc(C(C)(C)O)ccn2)cc1Nc1cc(F)cc(-c2ncccn2)c1OC` [Example 105, 4-((5-fluoro-2-methoxy-3-(pyrimidin-2-yl)phenyl)amino)-6-((4-(2-hydroxypropan-2-yl)pyridin-2-yl)amino)-N-(methyl-d3)pyridazine-3-carboxamide], the IC50 came to 172 nM.

In the case of `[2H]C([2H])([2H])NC(=O)c1nnc(NC(=O)C2CC2)cc1Nc1cccc(-c2cnc(C3(O)CCOC3)cn2)c1OC` (centres unmarked) [Example 34, 6-(cyclopropanecarboxamido)-4-((3-(5-(3-hydroxytetrahydrofuran-3-yl)pyrazin-2-yl)-2-methoxyphenyl)amino)-N-(methyl-d3)pyridazine-3-carboxamide], the IC50 came out at 36 nM.

Consider `[2H]C([2H])([2H])NC(=O)c1nnc(Nc2cc(C#N)n(C)n2)cc1Nc1cccc(-c2ncccn2)c1OC` [Example 80, 6-((5-cyano-1-methyl-1H-pyrazol-3-yl)amino)-4-((2-methoxy-3-(pyrimidin-2-yl)phenyl)amino)-N-(methyl-d3)pyridazine-3-carboxamide], for which the IC50 came to 80 nM.

`[2H]C([2H])([2H])NC(=O)c1nnc(NC(=O)C2CC2)cc1Nc1cccc(-c2ncc(C3(O)CCC3)cn2)c1OC` [Example 27, 6-(cyclopropanecarboxamido)-4-((3-(5-(1-hydroxycyclobutyl)pyrimidin-2-yl)-2-methoxyphenyl)amino)-N-(methyl-d3)pyridazine-3-carboxamide]: the IC50 was 63 nM.

For the compound `[2H]C([2H])([2H])NC(=O)c1nnc(NC(=O)C2CC2)cc1Nc1cccc(-c2cnc(C(C)(O)CF)cn2)c1OC` (centres unmarked) [Example 35, 6-(cyclopropanecarboxamido)-4-((3-(5-(1-fluoro-2-hydroxypropan-2-yl)pyrazin-2-yl)-2-methoxyphenyl)amino)-N-(methyl-d3)pyridazine-3-carboxamide], the IC50 was 107 nM.

For the compound `[2H]C([2H])([2H])NC(=O)c1nnc(Nc2cn(CC)nn2)cc1Nc1cccc(-c2ncc(F)cn2)c1OC` [Example 89, 6-((1-ethyl-1H-1,2,3-triazol-4-yl)amino)-4-((3-(5-fluoropyrimidin-2-yl)-2-methoxyphenyl)amino)-N-(methyl-d3)pyridazine-3-carboxamide], the IC50 stood at 250 nM.

As to `[2H]C([2H])([2H])NC(=O)c1nnc(NC(=O)C2CC2)cc1Nc1cccc(-c2cnc(N3CCN(C)CC3)cn2)c1OC` [Example 58, 6-(cyclopropanecarboxamido)-4-((2-methoxy-3-(5-(4-methylpiperazin-1-yl)pyrazin-2-yl)phenyl)amino)-N-(methyl-d3)pyridazine-3-carboxamide], the IC50 came out at 267 nM.

For the compound `[2H]C([2H])([2H])NC(=O)c1nnc(NC(=O)C2CC2)cc1Nc1cccc(-c2ncc(C(=O)N(C)CC)cn2)c1OC` [Example 50, 6-(Cyclopropanecarboxamido)-4-((3-(5-(ethyl(methyl)carbamoyl)pyrimidin-2-yl)-2-methoxyphenyl)amino)-N-(methyl-d3)pyridazine-3-carboxamide], the IC50 was found to be 41 nM.

Turning to `[2H]C([2H])([2H])NC(=O)c1nnc(NC(=O)C2CC2)cc1Nc1cc(F)cc(-c2ccc(C(C)(C)O)nn2)c1OC` [Example 22, 6-(cyclopropanecarboxamido)-4-((5-fluoro-3-(6-(2-hydroxypropan-2-yl)pyridazin-3-yl)-2-methoxyphenyl)amino)-N-(methyl-d3)pyridazine-3-carboxamide], the IC50 was found to be 120 nM.

For the compound `[2H]C([2H])([2H])NC(=O)c1cnc(Nc2ccn(CC)n2)cc1Nc1cccc(-c2ncc(F)cn2)c1OC` [Example 67, 6-((1-ethyl-1H-pyrazol-3-yl)amino)-4-((3-(5-fluoropyrimidin-2-yl)-2-methoxyphenyl)amino)-N-(methyl-d3)nicotinamide], the IC50 is 87 nM.

Turning to `[2H]C([2H])([2H])NC(=O)c1nnc(NC(=O)C2CC2)cc1Nc1cccc(-c2ccc(C(C)(O)CC)nn2)c1OC` (centres unmarked) [Example 23, 6-(cyclopropanecarboxamido)-4-((3-(6-(2-hydroxybutan-2-yl)pyridazin-3-yl)-2-methoxyphenyl)amino)-N-(methyl-d3)pyridazine-3-carboxamide], the IC50 is 32 nM.

As to `[2H]C([2H])([2H])NC(=O)c1nnc(NC(=O)C2CC2)cc1Nc1cccc(-c2cnc(C(=O)N3CC[C@@H](F)C3)cn2)c1OC` [Example 37, (R)-6-(cyclopropanecarboxamido)-4-((3-(5-(3-fluoropyrrolidine-1-carbonyl)pyrazin-2-yl)-2-methoxyphenyl)amino)-N-(methyl-d3)pyridazine-3-carboxamide], the IC50 was 97 nM.

Consider `[2H]C([2H])([2H])NC(=O)c1cnc(Nc2ccn(C3CC3)n2)cc1Nc1cccc(-c2ncc(F)cn2)c1OC` [Example 68, 6-((1-cyclopropyl-1H-pyrazol-3-yl)amino)-4-((3-(5-fluoropyrimidin-2-yl)-2-methoxyphenyl)amino)-N-(methyl-d3)nicotinamide], for which the concentration for half-maximal inhibition (IC50) was found to be 134 nM.

As to `[2H]C([2H])([2H])NC(=O)c1nnc(NC(=O)C2CC2)cc1Nc1cccc(-c2ncc(N3CCOC3=O)cn2)c1OC` [Example 113], the IC50 was 36 nM.

`[2H]C([2H])([2H])NC(=O)c1cnc(Nc2cc(=O)n(C)cn2)cc1Nc1cccc(-c2ncc(F)cn2)c1OC` [Example 77, 4-((3-(5-fluoropyrimidin-2-yl)-2-methoxyphenyl)amino)-N-(methyl-d3)-6-((1-methyl-6-oxo-1,6-dihydropyrimidin-4-yl)amino)nicotinamide]: the IC50 came out at 228 nM.

In the case of `[2H]C([2H])([2H])NC(=O)c1nnc(NC(=O)C2CC2)cc1Nc1cc(F)cc(-c2ccc(C(=O)N(C)C)nn2)c1OC` [Example 42, 6-(cyclopropanecarboxamido)-4-((3-(6-(dimethylcarbamoyl)pyridazin-3-yl)-5-fluoro-2-methoxyphenyl)amino)-N-(methyl-d3)pyridazine-3-carboxamide], the IC50 was determined as 56 nM.

For `[2H]C([2H])([2H])NC(=O)c1cnc(Nc2ccc(C(F)(F)F)nn2)cc1Nc1cccc(-c2ncccn2)c1OC` [Example 76, 4-((2-methoxy-3-(pyrimidin-2-yl)phenyl)amino)-N-(methyl-d3)-6-((6-(trifluoromethyl)pyridazin-3-yl)amino)nicotinamide], the IC50 amounted to 77 nM.

On to `[2H]C([2H])([2H])NC(=O)c1nnc(NC(=O)C2CC2)cc1Nc1cccc(-c2ncc(S(C)(=O)=O)cn2)c1OC` [Example 111], for which the IC50 was 216 nM.

Regarding `[2H]C([2H])([2H])NC(=O)c1nnc(NC(=O)C2CC2)cc1Nc1cccc(-c2ncc(N3CCOCC3)cn2)c1OC` [Example 13, 6-(cyclopropanecarboxamido)-4-((2-methoxy-3-(5-morpholinopyrimidin-2-yl)phenyl)amino)-N-(methyl-d3)pyridazine-3-carboxamide], the IC50 was 95 nM.

Turning to `[2H]C([2H])([2H])NC(=O)c1nnc(NC(=O)C2CC2)cc1Nc1cc(F)cc(-c2ncccn2)c1OC` [Example 7, 6-(cyclopropanecarboxamido)-4-((5-fluoro-2-methoxy-3-(pyrimidin-2-yl)phenyl)amino)-N-(methyl-d3)pyridazine-3-carboxamide], the IC50 was found to be 196 nM.
